Measured values: ChEMBL document CHEMBL1909046, “DrugMatrix in vitro pharmacology data”

Tests used:
Carbonic anhydrase 2 = Carbonic anhydrase 2 (Homo sapiens, UniProt P00918); assay: DRUGMATRIX: Carbonic Anhydrase II enzyme inhibition (substrate: 4-Nitrophenyl acetate (4-NPA)); assay type: tissue-based, Erythrocyte; details: erythrocyte; Not Active = under 50% inhibition at 10 µM
[1] = DRUGMATRIX: Tumor Necrosis Factor (TNF), Non-Selective radioligand binding (ligand: [125I] TNF-alpha); assay type: cell membranes, Membrane; details: u-937; Not Active = under 50% inhibition at 10 µM
[2] = DRUGMATRIX: Glutamate, NMDA, Agonism radioligand binding (ligand: [3H] CGP-39653); assay type: cell membranes, Rattus norvegicus, Wistar, Cerebral cortex, Membrane; details: Not Active = under 50% inhibition at 10 µM
[3] = biological target: Platelet-activating factor receptor (Homo sapiens, UniProt P25105); assay type: tissue-based; also: in other assays of this panel Not Active means under 50% inhibition at 10 µM
Sequence of Platelet-activating factor receptor (P25105 whole entry): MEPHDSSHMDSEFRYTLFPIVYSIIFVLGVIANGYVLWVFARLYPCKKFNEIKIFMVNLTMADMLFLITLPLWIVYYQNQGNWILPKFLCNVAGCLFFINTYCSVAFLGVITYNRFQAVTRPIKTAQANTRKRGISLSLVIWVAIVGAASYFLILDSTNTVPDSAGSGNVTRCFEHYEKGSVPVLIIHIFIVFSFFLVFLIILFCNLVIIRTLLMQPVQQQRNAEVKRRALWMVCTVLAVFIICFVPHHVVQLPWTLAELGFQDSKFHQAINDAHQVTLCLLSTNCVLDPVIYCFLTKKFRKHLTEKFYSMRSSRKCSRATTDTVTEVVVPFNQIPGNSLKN

Thromboxane-A synthase = biological target: T1, Thromboxane-A synthase (Homo sapiens, UniProt P24557); assay: biochemical; assay type: tissue-based, Platelet;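 also: enzyme inhibition assay with PGH2 supplied as substrate; in other assays of this panel Not Active means under 50% inhibition at 10 µM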
T1 sequence (P24557 whole entry): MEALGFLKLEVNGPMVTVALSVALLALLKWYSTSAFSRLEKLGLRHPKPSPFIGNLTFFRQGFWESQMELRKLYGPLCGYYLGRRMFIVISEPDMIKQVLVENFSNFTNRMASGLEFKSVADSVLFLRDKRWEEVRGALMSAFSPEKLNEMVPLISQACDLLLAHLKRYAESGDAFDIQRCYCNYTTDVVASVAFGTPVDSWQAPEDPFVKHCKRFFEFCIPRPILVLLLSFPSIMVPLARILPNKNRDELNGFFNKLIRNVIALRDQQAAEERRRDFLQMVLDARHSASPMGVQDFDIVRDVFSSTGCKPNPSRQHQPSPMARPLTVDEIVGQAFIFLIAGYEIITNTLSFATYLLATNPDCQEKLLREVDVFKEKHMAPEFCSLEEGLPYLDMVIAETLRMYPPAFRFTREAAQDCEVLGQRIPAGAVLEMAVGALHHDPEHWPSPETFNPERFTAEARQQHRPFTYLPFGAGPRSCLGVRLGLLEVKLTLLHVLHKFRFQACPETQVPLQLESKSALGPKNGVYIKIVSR

Cytochrome P450 2C19 = Cytochrome P450 2C19 (Homo sapiens, UniProt P33261); details: bti-tn-5b1-4; also: in other assays of this panel Not Active means under 50% inhibition at 10 µM
Sequence of Cytochrome P450 2C19 (P33261 whole entry): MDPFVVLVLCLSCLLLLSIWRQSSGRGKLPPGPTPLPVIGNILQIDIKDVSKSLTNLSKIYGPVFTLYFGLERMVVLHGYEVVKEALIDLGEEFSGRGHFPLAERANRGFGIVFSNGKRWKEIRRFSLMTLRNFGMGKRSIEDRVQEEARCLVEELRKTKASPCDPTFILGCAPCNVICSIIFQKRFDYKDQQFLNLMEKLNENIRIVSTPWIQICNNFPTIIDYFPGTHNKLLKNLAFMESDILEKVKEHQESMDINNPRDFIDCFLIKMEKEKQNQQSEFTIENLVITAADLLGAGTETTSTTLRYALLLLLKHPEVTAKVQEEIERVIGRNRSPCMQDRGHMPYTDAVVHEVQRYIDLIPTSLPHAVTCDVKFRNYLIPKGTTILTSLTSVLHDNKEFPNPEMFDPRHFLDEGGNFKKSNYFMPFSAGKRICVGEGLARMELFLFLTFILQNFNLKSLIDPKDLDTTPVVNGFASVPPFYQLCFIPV

[4] = biological target: T2, Nitric oxide synthase, inducible (Mus musculus, UniProt P29477); parameters: species or system Escherichia coli;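 also: inhibition of iNOS enzyme activity measured with L-arginine as substrate; in other assays of this panel Not Active means under 50% inhibition at 10 µM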
T2 sequence (P29477 whole entry): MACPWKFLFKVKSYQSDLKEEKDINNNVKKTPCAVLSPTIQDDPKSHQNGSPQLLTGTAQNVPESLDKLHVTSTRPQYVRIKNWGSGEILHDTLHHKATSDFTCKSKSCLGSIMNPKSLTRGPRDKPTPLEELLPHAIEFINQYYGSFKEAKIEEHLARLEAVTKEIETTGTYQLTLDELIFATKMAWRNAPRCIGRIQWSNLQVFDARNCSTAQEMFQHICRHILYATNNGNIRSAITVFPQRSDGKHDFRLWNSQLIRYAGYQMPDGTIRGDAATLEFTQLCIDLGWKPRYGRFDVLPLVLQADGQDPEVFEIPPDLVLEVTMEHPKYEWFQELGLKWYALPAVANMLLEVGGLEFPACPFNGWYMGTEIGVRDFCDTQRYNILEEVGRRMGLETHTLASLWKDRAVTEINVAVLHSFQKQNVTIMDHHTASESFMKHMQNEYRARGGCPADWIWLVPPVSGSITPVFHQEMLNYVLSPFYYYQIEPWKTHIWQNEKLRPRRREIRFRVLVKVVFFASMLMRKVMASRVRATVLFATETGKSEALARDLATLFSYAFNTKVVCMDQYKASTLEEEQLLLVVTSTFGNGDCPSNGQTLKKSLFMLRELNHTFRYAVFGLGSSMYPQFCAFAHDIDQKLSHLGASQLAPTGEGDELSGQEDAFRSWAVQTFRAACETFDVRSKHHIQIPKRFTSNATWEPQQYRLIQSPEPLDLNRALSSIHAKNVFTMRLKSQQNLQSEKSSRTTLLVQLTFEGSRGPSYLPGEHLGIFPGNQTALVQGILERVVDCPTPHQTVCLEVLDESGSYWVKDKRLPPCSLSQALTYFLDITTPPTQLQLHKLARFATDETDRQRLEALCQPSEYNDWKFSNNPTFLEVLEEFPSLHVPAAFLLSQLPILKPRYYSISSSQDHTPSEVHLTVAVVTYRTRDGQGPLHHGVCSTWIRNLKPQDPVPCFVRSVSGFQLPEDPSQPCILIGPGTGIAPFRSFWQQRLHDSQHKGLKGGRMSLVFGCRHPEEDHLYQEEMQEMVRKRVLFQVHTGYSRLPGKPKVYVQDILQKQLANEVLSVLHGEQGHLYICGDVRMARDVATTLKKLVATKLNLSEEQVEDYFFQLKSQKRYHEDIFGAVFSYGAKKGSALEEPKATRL

Caspase-1 = biological target: T3, Caspase-1 (Homo sapiens, UniProt P29466); parameters: species or system Escherichia coli
T3 sequence (P29466 whole entry): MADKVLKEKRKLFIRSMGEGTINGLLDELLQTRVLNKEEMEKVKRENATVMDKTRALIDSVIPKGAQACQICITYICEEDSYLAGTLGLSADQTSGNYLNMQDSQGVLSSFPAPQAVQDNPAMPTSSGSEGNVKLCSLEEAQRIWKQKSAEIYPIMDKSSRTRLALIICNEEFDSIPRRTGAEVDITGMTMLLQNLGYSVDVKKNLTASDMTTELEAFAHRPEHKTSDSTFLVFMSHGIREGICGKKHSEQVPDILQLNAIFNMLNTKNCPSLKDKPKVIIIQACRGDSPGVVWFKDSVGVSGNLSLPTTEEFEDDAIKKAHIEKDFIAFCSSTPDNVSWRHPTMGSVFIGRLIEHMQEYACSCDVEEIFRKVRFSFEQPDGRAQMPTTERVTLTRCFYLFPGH

[5] = biological target: Mitogen-activated protein kinase 1 (Homo sapiens, UniProt P28482); assay: DRUGMATRIX: Protein Serine/Threonine Kinase, ERK2 enzyme inhibition (substrate: Myelin Basic Protein); parameters: species or system Escherichia coli; details: Not Active = under 50% inhibition at 10 µM
Sequence of Mitogen-activated protein kinase 1 (P28482 whole entry): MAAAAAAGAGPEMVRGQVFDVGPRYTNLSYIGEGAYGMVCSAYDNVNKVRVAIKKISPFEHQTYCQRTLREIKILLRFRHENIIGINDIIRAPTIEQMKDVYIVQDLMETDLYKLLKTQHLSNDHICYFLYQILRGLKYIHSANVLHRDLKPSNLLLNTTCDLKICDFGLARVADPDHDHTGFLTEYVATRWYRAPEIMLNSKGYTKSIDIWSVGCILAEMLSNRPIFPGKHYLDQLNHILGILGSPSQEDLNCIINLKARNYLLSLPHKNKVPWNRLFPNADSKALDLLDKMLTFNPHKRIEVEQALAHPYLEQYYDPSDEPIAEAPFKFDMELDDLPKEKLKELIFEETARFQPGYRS

SMILES | IC50 (Carbonic anhydrase 2) | IC50 [1] | Ki [1] | IC50 [2] | Ki [2] | IC50 [3] | IC50 (Thromboxane-A synthase; platelet) | IC50 (Cytochrome P450 2C19) | Ki (Cytochrome P450 2C19) | IC50 [4] | IC50 (Caspase-1) | IC50 [5] | IC50 (Thromboxane-A synthase; read-out: IC50) [µM]
CC1=C(CC(=O)O)c2cc(F)ccc2/C1=C\c1ccc([S+](C)[O-])cc1 (stereo not given) | Not Active | Not Active | Not Active | Not Active | Not Active | Not Active | Not Active | Not Active | Not Active | Not Active | Not Active | Not Active | –
N[C@H](CSC(=S)NCc1ccccc1)C(=O)O | Not Active | Not Active | Not Active | Not Active | Not Active | Not Active | Not Active | Not Active | Not Active | Not Active | Not Active | Not Active | –
CC(=O)N[C@@H]1[C@H](Oc2c3cc4cc2Oc2ccc(cc2Cl)[C@@H](O[C@@H]2O[C@@H](CO)[C@@H](O)[C@H](O)[C@@H]2NC(C)=O)[C@@H]2NC(=O)[C@H](NC(=O)[C@@H]4NC(=O)[C@H]4NC(=O)[C@@H](Cc5ccc(c(Cl)c5)O3)NC(=O)[C@H](N)c3ccc(O)c(c3)Oc3cc(O)cc4c3)c3ccc(O)c(c3)-c3c(O[C@H]4O[C@H](CO)[C@@H](O)[C@@H](O)[C@@H]4O)cc(O)cc3[C@@H](C(=O)O)NC2=O)O[C@@H](CO)[C@@H](O)[C@@H]1O | Not Active | Not Active | Not Active | Not Active | Not Active | Not Active | Not Active | Not Active | Not Active | Not Active | Not Active | Not Active | –
Clc1ccc2c(c1)C(N1CCNCC1)=Nc1ccccc1O2 [AMOXAPINE] | Not Active | – | – | – | – | Not Active | Not Active | Not Active | Not Active | Not Active | Not Active | Not Active | –
COc1cc2c(c(OC)c1OC)-c1ccc(OC)c(=O)cc1[C@@H](NC(C)=O)CC2 [COLCHICINE] | Not Active | – | – | – | – | Not Active | Not Active | Not Active | Not Active | Not Active | Not Active | Not Active | –
CN1CCC(=C2c3ccccc3C=Cc3ccccc32)CC1 [CYPROHEPTADINE] | Not Active | – | – | – | – | Not Active | Not Active | Not Active | Not Active | Not Active | Not Active | Not Active | –
CC/C(=C(/CC)c1ccc(O)cc1)c1ccc(O)cc1 [DIETHYLSTILBESTROL] | Not Active | – | – | – | – | Not Active | – | Not Active | Not Active | Not Active | Not Active | Not Active | 4.36
CC(=O)N1CCN(c2ccc(OCC3COC(Cn4ccnc4)(c4ccc(Cl)cc4Cl)O3)cc2)CC1 (stereo not given) [KETOCONAZOLE] | Not Active | Not Active | Not Active | Not Active | Not Active | Not Active | – | Not Active | Not Active | Not Active | Not Active | Not Active | 2.17
